Reference: ChEMBL document CHEMBL1201862, “PubChem BioAssay data set” (2004)
The source made the active and inactive calls.

Legend:
Protein RecA = target: T1, Protein RecA (Mycobacterium tuberculosis, UniProt P9WHJ3); test: Fluorescence Cell-Free Homogeneous Dose Retest to Identify Inhibitors of RecA-Intein Splicing Activity. [Related pubchem assays (depositor defined):AID2097, AID2223, AID489010, AID492950]; format: functional
T1 sequence (P9WHJ3 whole entry): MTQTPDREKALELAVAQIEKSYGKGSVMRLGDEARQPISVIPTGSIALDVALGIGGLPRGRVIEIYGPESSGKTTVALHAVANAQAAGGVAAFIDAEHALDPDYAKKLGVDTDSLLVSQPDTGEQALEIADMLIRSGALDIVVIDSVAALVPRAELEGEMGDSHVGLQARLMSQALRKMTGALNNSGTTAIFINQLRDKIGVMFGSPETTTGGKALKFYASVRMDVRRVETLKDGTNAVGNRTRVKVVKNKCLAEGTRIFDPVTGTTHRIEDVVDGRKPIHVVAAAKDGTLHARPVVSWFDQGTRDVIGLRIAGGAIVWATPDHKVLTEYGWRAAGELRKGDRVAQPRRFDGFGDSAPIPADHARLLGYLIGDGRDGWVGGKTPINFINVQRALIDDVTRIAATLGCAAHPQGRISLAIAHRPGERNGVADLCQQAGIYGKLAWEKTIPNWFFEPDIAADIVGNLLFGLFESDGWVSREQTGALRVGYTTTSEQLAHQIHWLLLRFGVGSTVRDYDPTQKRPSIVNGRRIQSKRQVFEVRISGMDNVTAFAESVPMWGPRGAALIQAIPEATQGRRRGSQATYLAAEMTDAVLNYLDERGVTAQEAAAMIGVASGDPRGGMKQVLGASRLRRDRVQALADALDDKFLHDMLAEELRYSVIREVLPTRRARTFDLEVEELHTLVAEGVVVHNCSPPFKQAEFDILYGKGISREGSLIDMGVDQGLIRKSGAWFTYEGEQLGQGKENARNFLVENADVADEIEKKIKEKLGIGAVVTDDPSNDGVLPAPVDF

[1] = target: T2, Replicative DNA helicase DnaB (Mycobacterium tuberculosis, UniProt P9WMR3); test: DnaB intein splicing inhibitors, dose response, biochemical, cell-free fluorescence (AID 449749); format: functional
T2 sequence (P9WMR3 whole entry): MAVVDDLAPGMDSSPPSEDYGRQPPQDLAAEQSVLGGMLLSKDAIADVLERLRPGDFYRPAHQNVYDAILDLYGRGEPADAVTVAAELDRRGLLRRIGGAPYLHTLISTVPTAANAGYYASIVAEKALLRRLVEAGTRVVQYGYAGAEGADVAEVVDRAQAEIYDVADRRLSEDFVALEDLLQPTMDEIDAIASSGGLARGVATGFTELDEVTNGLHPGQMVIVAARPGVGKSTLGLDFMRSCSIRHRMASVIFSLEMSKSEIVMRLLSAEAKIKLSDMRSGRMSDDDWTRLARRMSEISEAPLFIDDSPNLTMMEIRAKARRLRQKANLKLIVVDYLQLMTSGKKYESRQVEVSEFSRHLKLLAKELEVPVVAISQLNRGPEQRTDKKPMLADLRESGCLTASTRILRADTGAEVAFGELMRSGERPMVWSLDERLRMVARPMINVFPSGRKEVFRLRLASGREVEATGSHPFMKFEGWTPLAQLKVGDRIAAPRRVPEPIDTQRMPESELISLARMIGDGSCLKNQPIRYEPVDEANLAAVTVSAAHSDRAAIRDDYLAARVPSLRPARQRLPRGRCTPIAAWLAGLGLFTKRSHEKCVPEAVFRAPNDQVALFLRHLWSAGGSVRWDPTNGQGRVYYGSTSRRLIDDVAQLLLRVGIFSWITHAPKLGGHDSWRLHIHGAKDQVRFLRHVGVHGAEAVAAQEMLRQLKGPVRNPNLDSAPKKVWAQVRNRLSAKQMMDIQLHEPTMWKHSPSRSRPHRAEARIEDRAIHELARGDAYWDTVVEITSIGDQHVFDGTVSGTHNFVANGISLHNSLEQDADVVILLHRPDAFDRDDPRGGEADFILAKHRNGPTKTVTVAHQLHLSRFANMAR

Cytochrome P450 2D6 = Cytochrome P450 2D6 (Homo sapiens, UniProt P10635);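 also: CYP2D6 member of a cytochrome P450 panel assay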
Protein skinhead-1 = target: T3, Protein skinhead-1 (Caenorhabditis elegans, UniProt P34707); format: functional
T3 sequence (P34707 whole entry): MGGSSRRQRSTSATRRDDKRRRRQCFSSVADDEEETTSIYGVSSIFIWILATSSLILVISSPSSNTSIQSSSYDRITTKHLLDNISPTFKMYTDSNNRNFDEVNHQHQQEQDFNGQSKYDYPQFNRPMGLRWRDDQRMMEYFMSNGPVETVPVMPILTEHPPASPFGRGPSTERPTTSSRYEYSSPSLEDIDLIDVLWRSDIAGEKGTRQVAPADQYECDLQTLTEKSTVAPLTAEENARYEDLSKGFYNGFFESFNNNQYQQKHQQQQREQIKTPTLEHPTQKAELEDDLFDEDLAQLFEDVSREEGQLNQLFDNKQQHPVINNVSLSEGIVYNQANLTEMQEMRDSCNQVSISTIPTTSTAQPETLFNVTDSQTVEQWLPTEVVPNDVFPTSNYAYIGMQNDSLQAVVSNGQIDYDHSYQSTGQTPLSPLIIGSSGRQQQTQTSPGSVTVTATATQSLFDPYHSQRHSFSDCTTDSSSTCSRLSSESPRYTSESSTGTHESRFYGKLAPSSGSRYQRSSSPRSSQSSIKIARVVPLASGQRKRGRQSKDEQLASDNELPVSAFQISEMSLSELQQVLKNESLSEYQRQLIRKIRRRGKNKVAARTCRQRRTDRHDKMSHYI

Streptokinase A = target: T4, Streptokinase A (Streptococcus pyogenes serotype M1, UniProt P10520); test: viability-normalized secreted streptokinase activity reduction – plasminogen activation absorbance, OD405, dose response (AID 1914); format: functional, Streptococcus pyogenes M1 GAS;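 also: secreted streptokinase activity via plasminogen activation per viability signal from cell pellet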
T4 sequence (P10520 whole entry): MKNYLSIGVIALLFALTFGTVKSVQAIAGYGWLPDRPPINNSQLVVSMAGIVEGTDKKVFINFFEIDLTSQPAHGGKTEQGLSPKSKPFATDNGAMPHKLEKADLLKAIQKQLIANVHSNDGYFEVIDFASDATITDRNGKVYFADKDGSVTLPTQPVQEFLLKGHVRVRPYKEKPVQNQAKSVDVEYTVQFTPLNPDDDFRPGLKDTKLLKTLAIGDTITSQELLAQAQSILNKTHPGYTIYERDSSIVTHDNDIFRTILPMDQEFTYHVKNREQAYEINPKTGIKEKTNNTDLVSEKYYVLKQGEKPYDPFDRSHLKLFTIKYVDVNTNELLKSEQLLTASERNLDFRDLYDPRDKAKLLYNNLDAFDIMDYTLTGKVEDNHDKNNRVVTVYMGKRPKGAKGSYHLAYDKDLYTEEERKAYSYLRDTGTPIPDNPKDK

INS1 = test: INS-1E survival protection against cytokine death – cell-based, luminescence, retest, dose response (AID 449756); format: functional; conditions: Rattus norvegicus;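 also: cell death triggered by IL-1 beta plus TNF-alpha plus IFN-gamma mixture; protective hits raise ATP signal compared with cytokine alone wells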
Streptococcus = test: GAS UMAA2166 growth inhibition – luminescence, BacTiterGlo, counter-screen for streptokinase expression inhibitor project, dose response (AID 1915); format: functional, organism-based;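 also: potency for reduction of bacterial viability or growth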
[2] = system: Streptococcus sp. 'group A'; test: Streptococcus pyogenes SK(-)GAS viability under kanamycin – luminescence, BacTiterGlo, confirmation, counter-screen for streptokinase expression inhibitor project, dose response (AID 1900); format: functional, organism-based
[3] = Luminescence Cell-Based Dose Retest to Confirm Inhibitors of Cancer Stem Cells. [Related pubchem assays (depositor defined):AID2717, AID2721]; format: functional; conditions: Homo sapiens
[4] = NIH3T3 cell viability loss – ATP luminescence, mouse fibroblasts, counter-screen, dose response (AID 2010); format: functional, cell-based;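 also: cells exposed to compound for about 90 hours before reading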
[5] = Trypanosoma cruzi growth suppression in host cells – NIH3T3 host cells, beta-gal luminescence, confirmation (AID 2044); format: functional, cell-based;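 also: intracellular parasites grown in NIH/3T3 mouse fibroblasts as host cells; luminescent beta-galactosidase reporter signal from transgenic T. cruzi replicating inside host cells; inhibitors lower the luminescence signal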
Cytochrome P450 2C19 = Cytochrome P450 2C19 (Homo sapiens, UniProt P33261); test: Cytochrome panel assay with activity outcomes. Panel member name: p450-cyp2c19 Compounds with AC50 equal or less than 10 uM are considered active; format: functional
Cytochrome P450 2C19, sequence (P33261 whole entry): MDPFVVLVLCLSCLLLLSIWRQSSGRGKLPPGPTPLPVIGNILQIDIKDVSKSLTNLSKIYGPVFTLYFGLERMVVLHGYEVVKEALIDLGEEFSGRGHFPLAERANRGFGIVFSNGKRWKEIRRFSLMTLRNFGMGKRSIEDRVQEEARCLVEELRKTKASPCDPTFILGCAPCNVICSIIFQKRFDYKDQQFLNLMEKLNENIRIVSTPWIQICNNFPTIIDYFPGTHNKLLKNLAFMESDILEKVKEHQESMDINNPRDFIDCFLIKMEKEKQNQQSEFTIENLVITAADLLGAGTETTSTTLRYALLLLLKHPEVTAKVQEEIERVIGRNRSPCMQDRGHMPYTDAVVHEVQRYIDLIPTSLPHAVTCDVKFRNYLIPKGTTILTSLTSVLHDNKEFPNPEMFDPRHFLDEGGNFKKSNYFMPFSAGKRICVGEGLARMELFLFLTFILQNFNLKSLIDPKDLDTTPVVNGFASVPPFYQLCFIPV

Cytochrome P450 2D6, sequence (P10635 whole entry): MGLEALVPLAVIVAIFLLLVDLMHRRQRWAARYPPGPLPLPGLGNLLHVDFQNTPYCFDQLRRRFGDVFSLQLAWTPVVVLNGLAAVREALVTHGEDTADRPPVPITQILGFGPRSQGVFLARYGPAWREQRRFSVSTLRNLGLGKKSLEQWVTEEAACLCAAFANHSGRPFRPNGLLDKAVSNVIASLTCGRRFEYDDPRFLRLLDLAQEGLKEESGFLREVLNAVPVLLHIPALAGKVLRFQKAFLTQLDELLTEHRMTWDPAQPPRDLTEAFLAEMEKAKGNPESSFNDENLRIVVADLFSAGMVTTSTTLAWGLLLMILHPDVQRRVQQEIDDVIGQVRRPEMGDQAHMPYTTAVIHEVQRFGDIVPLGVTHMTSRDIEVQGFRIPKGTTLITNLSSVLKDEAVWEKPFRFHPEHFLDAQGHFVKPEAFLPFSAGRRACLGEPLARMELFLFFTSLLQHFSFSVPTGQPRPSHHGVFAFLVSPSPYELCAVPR

With `Cn1c2c(c(=O)n(C)c1=O)[C@@]1(C(=O)Nc3ccccc31)C(C#N)=C(N)O2` the EC50 (Protein RecA) was 17.5 µM (active) and the AC50 [1] was 34.1 µM (inconclusive).

In the case of `CCOc1ccc2nc(O)c(CN(CCc3ccccc3)C(=O)N3CCCC3)cc2c1`, the AC50 (Cytochrome P450 2D6) is reported as 22.4 µM (inconclusive).

For `c1csc(-c2nc(-c3ccncc3)no2)c1`, the IC50 (Protein skinhead-1) was 22.2 µM (active).

In the case of `N#CC1=C(N)Oc2[nH]nc(-c3ccccc3)c2C1c1ccncc1` (stereo not drawn), the EC50 (Protein RecA) is reported as 3.12 µM (active) and the AC50 [1] is reported as 12.3 µM (active).

With `O=C(Nc1ccc(Br)c(C(F)(F)F)c1)c1ccc(C(F)(F)F)cc1` the EC50 (Streptokinase A) was > 150 µM (not active), the AC50 (INS1) was 8.01 µM (active) and the EC50 (Streptococcus) was 3.98 µM (active). For the same molecule, the EC50 [2] was 1.74 µM (active) and the AC50 [3] was 2.06 µM (active).

With `CCOC(=O)c1cccc(C2=CC(=O)C[C@H](c3ccc(Cl)cc3)C2)c1` the AC50 [3] was 0.885 µM (active).

For `CC(C)C1COC(c2cccc3ccccc23)=N1` (stereo not drawn), the IC50 (Protein skinhead-1) was 25 µM (active).

In the case of `c1ccc2oc(SCc3nc4ccccc4s3)nc2c1`, the IC50 (Protein skinhead-1) is reported as 37.5 µM (active).

In the case of `CCCC1(C(=O)OCC)NC(c2ccc(N(C)C)cc2)C2C(=O)N(c3ccccc3)C(=O)C21` (stereo not drawn), the IC50 (Protein skinhead-1) is reported as > 100 µM (inactive).

With `CC1CCN(S(=O)(=O)c2ccc(C(=O)N3CCOCC3)cc2)CC1` the IC50 (Protein skinhead-1) was > 100 µM (inactive).

With `CCN(C(=O)COC(=O)c1cc(-c2cccc3ccccc23)nc2ccccc12)C1CCS(=O)(=O)C1` (stereo not drawn) the IC50 (Protein skinhead-1) was > 100 µM (inactive).

For `O=C(CN=C(S)N(Cc1ccccc1)Cc1ccccc1F)NCCc1ccc(Cl)cc1`, the EC50 [4] was > 60 µM (not active), the EC50 [5] was 1.92 µM (active) and the AC50 [3] was 5.59 µM (active).

For `Cc1cc(Nc2ccccc2)c2c([N+](=O)[O-])ccc(C)c2n1`, the EC50 (Protein RecA) was 0.551 µM (active), the EC50 [4] was > 30 µM (not active) and the AC50 [1] was > 380 µM (inactive). For the same molecule, the EC50 [5] was 1.41 µM (active).

For `Brc1ccc(-c2nnc(-c3ccccc3Br)o2)cc1`, the IC50 (Protein skinhead-1) was > 100 µM (inactive).

For `Cc1ccc(N2CCN(S(=O)(=O)c3ccc4oc(=O)ccc4c3)CC2)c(C)c1`, the IC50 (Protein skinhead-1) was > 100 µM (inactive).

With `O=C(Nc1ccc(Cl)c(Cl)c1)Nc1ccon1` the EC50 (Streptokinase A) was > 150 µM (not active), the EC50 (Streptococcus) was 38.7 µM (active) and the IC50 (Protein skinhead-1) was > 100 µM (inactive). The EC50 [2] was 44.4 µM (active).

In the case of `CCNc1ncc2nc(-c3ccccc3)c(=O)n(C3CC3)c2n1`, the AC50 (Cytochrome P450 2D6) is reported as 1.26 µM (inconclusive).

In the case of `NC(=S)Nc1ccc(Oc2ccc(NC(N)=S)cc2)cc1`, the AC50 (Cytochrome P450 2D6) is reported as 14.1 µM (inconclusive) and the AC50 (Cytochrome P450 2C19; read-out: AC50) is reported as 25.1 µM (inconclusive).

With `COc1ccc(C(C)C)cc1S(=O)(=O)n1cnc(C)c1` the IC50 (Protein skinhead-1) was > 100 µM (inactive).

For `O=C(Nc1nc(-c2ccc(Cl)s2)cs1)c1ccccc1`, the IC50 (Protein skinhead-1) was 68.3 µM (inactive).

In the case of `C[C@@]12CC[C@H]3[C@H](CC=C4C[C@@H](O)CC[C@@]43C)[C@@H]1CC[C@@H]2N(CCO)CCO`, the AC50 (Cytochrome P450 2D6) is reported as 3.98 µM (inconclusive) and the AC50 (Cytochrome P450 2C19) is reported as “inconclusive”.

With `O=C(CCl)c1ccc(Cc2ncc(C(F)(F)F)cc2Cl)s1` the EC50 (Protein RecA) was 1.69 µM (active), the EC50 (Streptokinase A) was 3.38 µM (active) and the EC50 (Streptococcus) was 6.13 µM (active). The AC50 [1] was 3.57 µM (active) and the EC50 [2] was 4.31 µM (active).

With `CNc1nc(-c2ccoc2)nc2ccccc12` the AC50 (Cytochrome P450 2D6) was 39.8 µM (inconclusive).

For `CSc1cccc(NC(=O)C2C3C=CC4(O3)C2C(=O)N(CCN2CCOCC2)C4C(=O)NC2CCCCC2)c1` (stereo not drawn), the IC50 (Protein skinhead-1) was > 100 µM (inactive).

With `C=CCN1C(=O)NC(c2ccc(OC)cc2)(C(F)(F)F)S/C1=C(\C#N)c1nnc(N2CCOCC2)n1-c1ccccc1` (stereo not drawn) the EC50 (Protein RecA) was 9.73 µM (active) and the AC50 [1] was 6.76 µM (active).

For `COc1ccc(-c2nn(-c3ccccc3)cc2C(=O)N(C)CC(=O)Nc2cccc(F)c2)cc1`, the AC50 [3] was 12.9 µM (active).

In the case of `CCC(C)c1ccc(NC(=O)C2CC3CCC2C3)cc1` (stereo not drawn), the AC50 [3] is reported as 4.53 µM (active).

For `CC(C(=O)O)N1C(=O)CSc2ncccc21` (stereo not drawn), the AC50 [3] was > 195 µM (inactive).

With `CC(C)(C)[C@@H]1CCC(=O)N(CC[C@H](Sc2ccc(Br)cc2)c2ccccc2)CC1` the AC50 [3] was 3.18 µM (active).

For `CN(C(=O)C1Cc2c(-c3ccccc3Oc3ccccc3)ccnc2O1)c1ccccc1` (stereo not drawn), the IC50 (Protein skinhead-1) was > 100 µM (inactive).

For `O=C(NC(c1ccc(-c2ccccc2)cc1)c1cnccn1)C1CCN(CCOc2ccc(Cl)cc2Cl)CC1` (stereo not drawn), the IC50 (Protein skinhead-1) was > 100 µM (inactive).

For `C/C(=N\NC(N)=S)c1cc(-c2ccccc2)c(-c2ccccc2)s1`, the AC50 [3] was 3.27 µM (active).
